Key:
[1] = target: T1, tyrosinase released from B16-F10 cells (Mus musculus, UniProt P11344); assay: Inhibition of tyrosinase activity released from B16-F10 cells; format: cell-based, murine; settings: α-MSH induced cells, lysate, L-DOPA 0.5 mM
T1 construct: endogenous in cells; host or cells: B16-F10 murine melanoma cells, α-MSH stimulated, Triton X-100 lysate
Experimental: 50,000 cells were placed in each well of a 24-well plate (in F10-Ham medium, 1% FBS). After 24 h of culture, the tested compounds were added in fresh medium (DMEM, 1% FBS), with an additional 5 µM of α-melanocorticotropic hormone (α-MSH) in the medium to induce melanogenesis. Three wells on the plate constituted a control sample without the melanogenesis inducer (α-MSH) and without the tested compounds. After 24 hours of incubation under these conditions, the medium was removed and the cells were washed twice with PBS. 100 µL of lysis buffer composed of 90 µL of 50 mM potassium phosphate buffer, 5 µL of 0.1 mM phenylmethylsulfonyl fluoride and 5 µL of 1% Triton X-100 were added to the wells. The plates were placed at -80 °C for 30 minutes. Cell lysates were then centrifuged for 30 min (4 °C, 12,000 rpm), and then 80 µL of the supernatant was transferred to 96-well plates. […] After a 30-minute incubation, the absorbance was measured at 475 nm using a microplate reader. The percentage of inhibition of tyrosinase activity was calculated using the formula: [(AC -AT)/AC] × 100, where AC - is the absorbance of the negative control (from wells in which cells were cultured without the tested compounds), AT - is the absorbance of the sample from wells in which cells were cultured in the presence of the test compound.

[2] = test system: human reconstructed epidermis Episkin™; assay: Skin permeation in reconstructed human epidermis (Episkin); format: in vitro ADME
Experimental: The tested substance A-111 in a macrogol formulation (2% A-111 in the PEG400+PEG800 base) was applied onto the epidermis in an amount of approximately 10 mg/cm^2 ("finite dose application") using a sterile inoculation loop. The amount applied was weighed accurately. As a control, a macrogol formulation without the test substance was applied onto the epidermis. The finished experimental plate was incubated at 32 °C. At specific time intervals, aliquots of the receptor fluid (0.5 mL) were collected for the analysis and replaced with 0.5 mL of fresh receptor fluid. After 24 h of culture, all of the receptor fluid was collected. The examined tissue was washed with cotton buds soaked in methanol. The donor and receptor compartments were washed with methanol, and the epidermis was separated from the inserts and transferred to methanol. Samples were stored at -20 °C until analysis. The content (concentration) of the tested substance A-111 in the receptor fluid and in individual compartments: on the surface of the epidermis, in the epidermis, in the receptor fluid was determined using measurements in a microplate reader at 281 nm on 96-well plates transmitting ultraviolet radiation.
In order to confirm proper bioavailability, studies of the permeation of compound A-111 from a solution in PEG400 were performed in a model of reconstructed human epidermis. […] The tested substance A-111 was applied onto the epidermis in the form of a 2% PEG400 solution in an amount of 15 µL. The finished experimental plate was incubated at 32 °C. At specific time intervals, aliquots of the receptor fluid (0.5 mL) were collected for the analysis and replaced with fresh fluid. After 24 h of culture, all of the receptor fluid was collected. The examined tissue was washed with cotton buds soaked in methanol. The donor and receptor compartments were washed with methanol, and the epidermis was separated from the inserts and transferred to methanol. The content (concentration) of the tested substance A-111 in the acceptor fluid and in individual compartments: on the surface of the epidermis, in the epidermis, in the receptor fluid was determined using measurements in a microplate reader at 281nm on 96-well plates transmitting ultraviolet radiation.
Permeation studies of the A-111 compound from a cosmetic formulation were performed in a model of reconstructed human epidermis. […] 25 µL of the formulation containing the tested compound A-111 was applied to the epidermis. […] The content (concentration) of the tested substance A-111 in the receptor fluid and in individual compartments: on the surface of the epidermis, in the epidermis, in the receptor fluid was determined using measurements in a microplate reader at 281 nm on 96-well plates transmitting ultraviolet radiation.

[3] = test system: Balb/c 3T3 murine fibroblast cell line; assay: Phototoxicity in Balb/c 3T3 fibroblasts (neutral red uptake); settings: for phototoxic potential: Balb/c 3T3, neutral red uptake; for PIF: photoirritation factor: ratio of IC50 of unirradiated to irradiated cells; for cytotoxicity towards the mouse fibroblasts: with and without exposure to UVA
Experimental: Balb/c 3T3 cells, which are an immortalized murine fibroblast cell line, were purchased at ATTC and cultured in the medium recommended by the manufacturer (DMEM GlutaMAX, newborn calf serum (BCS), antibiotics). After multiplication, cells were placed in 96-well plates, which were incubated for 24 hours, after which all wells of the plates were washed with 150 µL of balanced salt solution (HBSS). Then, after drying the plates, 100 µL of a solution of the tested compounds in HBSS with 2% FBS was added to each well and incubated for an hour. After this time, some of the plates were irradiated using the Suntest CPS+ sunlight simulator from Atlas with appropriate filters cutting off radiation with a wavelength <320 nm (UVA radiation intensity 5 J/cm^2). The second part of the plates was placed in radiation-free conditions for the same period of time. After the exposure time, the liquid was removed from all plates and the wells were washed twice with 150 µL of HBSS, then supplemented with fresh culture medium and incubated for 24 hours in an incubator (37 °C, 5% CO2). Viability was assessed in the neutral red uptake test, which is based on the ability of the dye to penetrate only into living cells. Dye uptake was confirmed by absorbance measurement at 540 nm. […] The appropriate coefficients were also calculated: mean phototoxic effect (MPE) and photoirritation factor (PIF). PIF is the ratio of the IC50 values of unirradiated to irradiated cells, while MPE is based on the comparison of concentration-response curves. […]

[4] = 2% A-111 in the PEG400+PEG800 base, approx. 10 mg/cm^2, 24 h

T1 sequence (P11344 19-533): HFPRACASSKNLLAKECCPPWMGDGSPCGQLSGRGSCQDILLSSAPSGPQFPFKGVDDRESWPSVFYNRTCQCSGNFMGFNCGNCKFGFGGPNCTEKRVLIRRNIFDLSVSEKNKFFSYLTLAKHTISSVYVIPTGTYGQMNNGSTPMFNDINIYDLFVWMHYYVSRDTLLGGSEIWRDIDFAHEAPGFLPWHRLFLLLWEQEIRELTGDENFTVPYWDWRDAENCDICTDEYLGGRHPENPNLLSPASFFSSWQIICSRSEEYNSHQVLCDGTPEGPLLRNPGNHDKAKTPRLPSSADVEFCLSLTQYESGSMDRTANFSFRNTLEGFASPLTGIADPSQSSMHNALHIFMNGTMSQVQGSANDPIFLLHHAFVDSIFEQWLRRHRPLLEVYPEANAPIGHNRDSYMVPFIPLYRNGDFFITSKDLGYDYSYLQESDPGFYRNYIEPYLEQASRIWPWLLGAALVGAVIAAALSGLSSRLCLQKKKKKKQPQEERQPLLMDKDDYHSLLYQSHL

Structure (SMILES) | inhibition of tyrosinase activity released from B16-F10 cells [1] | accumulation in the epidermis [2, 4] | permeation through the epidermis [2, 4] | permeation through the epidermis ([2]; 2% PEG400 solution, 15 µL, 24 h) | permeation through the epidermis ([2]; 25 µL of the cosmetic formulation (0.74% A-111), 24 h) | phototoxic potential [3] | PIF [3] | cytotoxicity towards the mouse fibroblasts [3]
O=C(/C=C/c1ccc(Cl)cc1)NCCCCCO [Compound A-111, (2E)-3-(4-chlorophenyl)-N-(5-hydroxypentyl)prop-2-enamide] | inhibit the activity of tyrosinase released from B16-F10 cells | no accumulation of compound A-111 in the epidermis | crosses the epidermal barrier and has the potential to penetrate the dermis | crosses the epidermal barrier and has the potential to penetrate the dermis | crosses the epidermal barrier and has the potential to penetrate the dermis | do not have phototoxic potential | No phototoxicity | devoid of cytotoxicity
O=C(/C=C/c1ccccc1)NCCCCCO [Compound A-133, (2E)-N-(5-hydroxypentyl)-3-phenylprop-2-enamide] |  |  |  |  |  | do not have phototoxic potential | No phototoxicity | devoid of cytotoxicity

Reference: patent publication EP4324461A1, “(E)-N-CINAMOYLAMINOALKANOLES WITH MELANOGENESIS INHIBITORY ACTIVITY” (UNIWERSYTET JAGIELLONSKI, priority 2022, dated 2024)
